Experimental data from US20250368651A1 (priority 2022, published 2025).

Columns and labels:
[1] = biological target: DNA Seq6 (UGAAGGAAGGU as deoxyribonucleotides); assay: FP binding assay, DNA Seq6
Method: (§1) All synthetic DNA and RNA oligomers were purchased from Integrated DNA Technologies and reconstituted in nuclease-free water (Invitrogen #AM9932) at 1 mM. The concentration of the oligonucleotides at ˜0.1 mM was calibrated with the A260 value measured by a NanoDrop ND-1000 (Thermo, Waltham, MA, USA) and the predicted extinction coefficient (http://www.oligoevaluator.com) using Lamber-Beer's Law. The risdiplam analogues (1 mM in DMSO) were diluted in 2× assay buffer (40 mM HEPES, 200 mM NaCl for RNA; 40 mM HEPES, 200 mM NaCl, 1 mM MgCl2 for DNA) to make a 1 μM 2× working solution.
A 1:2 dilution series (8 points) of each oligonucleotide was prepared in 20-30 μL water to desired concentrations (i.e., 1-128 μM). 20-30 μL 2× working solution containing the 2× assay buffer and the small-molecule ligand was added to each oligonucleotide sample in 1:1 (v/v) and mixed by pipetting for 4 times. For fluorescence polarization measurement, 20 μL of the above 1× working solution was transferred into a 384-well, black, F-bottom microplates (Greiner Bio-One) in duplicates or triplicates. The plate was equilibrated at room temperature for 5 min before being read using a microplate reader (SYNERGY H1, BioTek; Excitation/Emission=360/460 nm) at 25° C. For compound SMN-C5, a competitive binding assay was employed to measure an apparent Kd. SMN-C5 was 1:2 serial diluted for 10 concentration points starting at 750 μM in DMSO. A mixture of SMN-C2 (0.5 μM) and DNA Seq6 (25 μM) in 1× assay buffer was prepared and incubated at room temperature for 10 minutes. 3 μL of SMN-C5 solution at each concentration was added to a 42 μL SMN-C2/DNA Seq6 mixture and incubated at room temperature for 10 minutes. The mixture was then transferred into a microplate (20 μL each well) in duplicates for fluorescence polarization readout. The experimental data were analyzed using Prism 8 software (Graphpad Software, San Diego, CA, USA).

RNA Seq10 UAAAGGAAGGU = assay: FP binding assay, RNA Seq10; conditions: Seq 10 UAAAGGAAGGU; 0.5 μM SMN-C2
Method: as §1
(§2) A 1:2 dilution series (8 points) of each oligonucleotide was prepared in 20-30 μL water to desired concentrations (i.e., 1-128 μM). […] For fluorescence polarization measurement, 20 μL of the above 1× working solution was transferred into a 384-well, black, F-bottom microplates (Greiner Bio-One) in duplicates or triplicates. The plate was equilibrated at room temperature for 5 min before being read using a microplate reader (SYNERGY H1, BioTek; Excitation/Emission=360/460 nm) at 25° C. […] The mixture was then transferred into a microplate (20 μL each well) in duplicates for fluorescence polarization readout. The experimental data were analyzed using Prism 8 software (Graphpad Software, San Diego, CA, USA).

DNA S10 […] = assay: FP binding assay, 18-nt DNA S10
Method: as §1, §2

DNA Seq14 AGAAGGTAGGT = assay: FP binding assay, DNA Seq14; conditions: Seq 14 AGAAGGTAGGT; 0.5 μM SMN-C2
Method: as §1, §2

RNA Seq13 UGAAGAAAGGU = assay: FP binding assay, RNA Seq13; conditions: Seq 13 UGAAGAAAGGU; 0.5 μM SMN-C2
Method: as §1, §2

[2] = tested on: SMN2 exon 7 minigenes with single-point mutations M1 and M2; assay: SMN2 splicing assay with minigenes mutated in the GA-rich sequence (M1, M2) in 293T cells; assay type: cell-based, human
DNA S18 […] = assay: FP binding assay, 18-nt DNA S18
Method: as §1, §2

DNA S9 […] = assay: FP binding assay, 18-nt DNA S9
Method: as §1, §2

5′-biotinylated RNA Seq4 = assay: Surface plasmon resonance (SPR) assay, RNA Seq4; assay type: binding; conditions: footnote b: SPR assay for RNA Seq4
Method: SPR experiments were performed on a Biacore T200 (GE Healthcare) instrument at 25° C. using streptavidin pre-coated SA sensor chips (GE Healthcare). The running buffer composed of 10 mM HEPES, 100 mM NaCl, 0.05% Tween 20 (w/v), 5 mM EDTA, 0.1% (v/v) DMSO at pH 6.8 was prepared freshly, filtered through the […] PVDF membrane prior to use. 5′-biotinylated RNA Seq4 was purchased from GenScript and dissolved in nuclease-free water to a concentration of 100 μM. For immobilization of the biotinylated RNA, the sensor chip was firstly conditioned with 3 consecutive 1 min injections of high salt solution (50 mM NaOH, 1M NaCl) at a flow rate of […]. Next, the biotinylated RNA was diluted 1000× in running buffer (100 nM) and applied over the streptavidin sensor chip surface at a flow rate of 10 μL/min to achieve immobilization level of about 800 RU. Finally, alkyne-PEG-biotin (50 μM in running buffer) was injected (1 min, […]) to block remaining streptavidin surface binding sites. The kinetics analysis was performed following the BiaControl Software Wizard Kinetics protocol. […] All monitored resonance signals were subtracted with signals from a non-binding reference channel. Kinetic values (Kd, ka, kd) were calculated using the BiaEvaluation Software Binding Affinity protocol with 1:1 fitting. […]

DNA S8 […] = assay: FP binding assay, 18-nt DNA S8
Method: as §1, §2

DNA S27 d([…]) = assay: FP binding assay, 10-nt DNA S27
Method: as §1, §2

[3] = biological target: COVID RNA (SARS-CoV-2 RNA SL5 per FIG. 8); assay: FP binding, Kd for COVID RNA; conditions: Table 3
DNA S14 […] = assay: FP binding assay, 18-nt DNA S14
Method: as §1, §2

DNA S1 […] = assay: FP binding assay, 18-nt DNA S1; conditions: range = 95% CI
Method: as §1, §2

DNA S7 […] = assay: FP binding assay, 18-nt DNA S7
Method: as §1, §2

RNA Seq8 UGAAGGAAGUU = assay: FP binding assay, RNA Seq8; conditions: Seq 8 UGAAGGAAGUU; 0.5 μM SMN-C2
Method: as §1, §2

in vitro [4] = conditions: human
in vitro [5] = conditions: human; remark: listed apart in the source

With CCN1CCN(c2ccc3cc(-c4cn5cc(C)nc(C)c5n4)c(=O)oc3c2)C[C@@H]1C [SMN-C2, (S)-3-(6,8-dimethylimidazo[1,2-a]pyrazin-2-yl)-7-(4-ethyl-3-methylpiperazin-1-yl)-2H-chromen-2-one] the Kd ([1]; Seq 6, 0.5 μM SMN-C2, range = 95% CI, read-out: DNA Kd) was 3.1 ± 0.7 µM, the “decrease in binding affinity by any single-point mutation of the core sequence” value ([1]; Seq10-17 vs Seq6) was ≥ 5 fold and the Kd (RNA Seq10 UAAAGGAAGGU) was > 100 µM. The Kd (DNA S10 […]) was 26.4 ± 2.2 µM, the Kd (DNA Seq14 AGAAGGTAGGT) was > 100 µM and the Kd (RNA Seq13 UGAAGAAAGGU) was > 100 µM. The “exon 7 inclusion” value ([2]; 1 μM, 293T cells transfected with mutated minigenes M1, M2) was > 90%, the “EC50 relative to minigene with wildtype exon 7 sequence, fold higher” value ([2]; mutated minigenes M1, M2 in 293T cells) was 2-3 fold and the Kd (DNA S18 […]) was > 50 µM. It also gave a Kd (DNA S9 […]) of 56.2 ± 13.9 µM, a Kd (5′-biotinylated RNA Seq4) of 5.4 µM and a Kd (DNA S8 […]) of 12.4 ± 0.4 µM. It also gave a Kd (DNA S27 d([…])) of 11.6 ± 1.7 µM, a Kd [3] of 1600 ± 400 nM and a Kd (DNA S14 […]) of 19.5 ± 2.3 µM. The Kd (DNA S1 […]) was 15.3 ± 0.6 µM, the Kd (DNA S7 […]) was 17.3 ± 1.7 µM and the Kd (RNA Seq8 UGAAGGAAGUU) was > 100 µM. The CC50 (in vitro [4]) was > 30 µM and the CC50 (in vitro [5]) was > 30 µM.
